Source: ChEMBL document CHEMBL1201862, “PubChem BioAssay data set” (2004)
Active and inactive are the calls of the source.

Key:
[1] = THP-1 cell cytotoxicity, dose response, cytotoxicity control for non-replicating M. tuberculosis project (AID 489025); type: functional
cells [2] = type: functional
cells [3] = assay: cells
[4] = StAR promoter reporter inhibition counter-screen, dose response, counter-screen for LRH-1 inverse agonist project, cell-based, luminescence, luciferase reporter (AID 651969); type: functional
[5] = cytotoxicity toward NIH3T3 fibroblasts, dose response, counter-screen, cell-based, ATP luminescence, mouse fibroblasts (AID 2010); type: functional;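 further: cells exposed to compound for about 90 hours before reading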
[6] = microbe, parasite or virus in culture; type: functional; settings: Mycobacterium tuberculosis
[7] = Vero E6 cell cytotoxicity, dose response, cytotoxicity control for non-replicating M. tuberculosis project, secondary assay (AID 492998); type: functional, VeroE6; settings: Vero C1008
[8] = target: Nuclear receptor subfamily 5 group A member 2 (Homo sapiens, UniProt O00482); type: functional, cell-based;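 further: HEK293T cells transfected with LRH-1 and a StAR promoter luciferase reporter; potency for inhibitors that lower LRH-1 driven reporter light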
Sequence of Nuclear receptor subfamily 5 group A member 2 (O00482 whole entry): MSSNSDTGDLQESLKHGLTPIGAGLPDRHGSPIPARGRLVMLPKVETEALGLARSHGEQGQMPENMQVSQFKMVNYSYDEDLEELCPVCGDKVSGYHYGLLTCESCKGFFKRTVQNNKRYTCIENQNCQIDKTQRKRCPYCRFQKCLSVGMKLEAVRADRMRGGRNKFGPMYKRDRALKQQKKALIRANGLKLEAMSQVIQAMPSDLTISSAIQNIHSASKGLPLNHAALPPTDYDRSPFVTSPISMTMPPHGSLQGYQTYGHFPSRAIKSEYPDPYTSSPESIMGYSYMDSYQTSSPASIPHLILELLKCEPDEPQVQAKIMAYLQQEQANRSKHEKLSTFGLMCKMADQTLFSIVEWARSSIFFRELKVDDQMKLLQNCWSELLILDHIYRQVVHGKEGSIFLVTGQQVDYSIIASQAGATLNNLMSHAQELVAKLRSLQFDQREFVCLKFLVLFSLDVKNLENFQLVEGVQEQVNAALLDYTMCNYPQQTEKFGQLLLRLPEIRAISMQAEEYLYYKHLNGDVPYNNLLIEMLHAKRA

[9] = inhibitors of intracellular T. cruzi replication, confirmation, NIH3T3 host cells, beta-gal luminescence (AID 2044); type: functional, cell-based;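 further: intracellular parasites grown in NIH/3T3 mouse fibroblasts as host cells; luminescent beta-galactosidase reporter signal from transgenic T. cruzi replicating inside host cells; inhibitors lower the luminescence signal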
Steroidogenic factor 1 = Steroidogenic factor 1 (Homo sapiens, UniProt Q13285); assay: Counterscreen for inverse agonists of the liver receptor homolog-1 (LRH-1; NR5A2): Luminescence-based cell-based high throughput dose response assay to identify inverse agonists of the Steroidogenic Factor 1 Nuclear Receptor (SF1; NR5A1).; type: functional
Sequence of Steroidogenic factor 1 (Q13285 whole entry): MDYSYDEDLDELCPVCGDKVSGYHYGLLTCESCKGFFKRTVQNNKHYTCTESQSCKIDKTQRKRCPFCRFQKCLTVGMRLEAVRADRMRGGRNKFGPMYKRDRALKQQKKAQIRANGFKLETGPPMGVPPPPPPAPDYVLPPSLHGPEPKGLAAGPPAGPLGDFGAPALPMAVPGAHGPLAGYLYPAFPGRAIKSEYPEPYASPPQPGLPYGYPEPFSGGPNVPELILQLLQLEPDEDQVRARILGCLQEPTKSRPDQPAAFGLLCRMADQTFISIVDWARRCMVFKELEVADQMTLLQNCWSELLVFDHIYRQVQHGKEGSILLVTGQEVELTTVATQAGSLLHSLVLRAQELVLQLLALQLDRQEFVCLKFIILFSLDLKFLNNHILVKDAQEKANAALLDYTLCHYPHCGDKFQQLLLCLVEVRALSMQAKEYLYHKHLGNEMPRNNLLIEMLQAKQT

Vero [10] = assay: West Nile virus antiviral activity, cell-based, CPE readout (AID 1621); type: functional; settings: Chlorocebus sabaeus
Vero [11] = assay: cytotoxicity of synthesized analogs in Vero cells, SAR follow-up, cytotoxicity control for West Nile virus antiviral project, cell-based, set II (AID 2402); type: functional; settings: Chlorocebus sabaeus
Vero [12] = assay: West Nile virus CPE inhibition, SAR follow-up, cell-based, synthesized analogs (AID 2238); type: functional; settings: Chlorocebus sabaeus
HEK293 [13] = assay: NOD2 signaling inhibitors in MDP-stimulated cells, cell-based, uHTS, luminescence (AID 2001); type: functional; settings: Homo sapiens
HEK293 [14] = assay: cells; type: functional, cell-based; settings: Homo sapiens
[15] = cytotoxicity toward DRD oncogenic fibroblasts, dose response, cell-based, non-viral oncogenic, luminescence (AID 1934); type: functional; settings: Homo sapiens
BJ [16] = assay: cytotoxicity toward BJ-TERT-LT-ST fibroblasts, dose response, cell-based, RAS-independent, luminescence (AID 1935); type: functional; settings: Homo sapiens;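 further: BJ fibroblasts immortalized with TERT plus LT and ST oncogenes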
[17] = target: Nucleotide-binding oligomerization domain-containing protein 2 (Homo sapiens, UniProt Q9HC29); assay: NOD2 signaling inhibitors, cell-based, luminescence, uHTS, HEK293 (AID 1566); type: functional
Sequence of Nucleotide-binding oligomerization domain-containing protein 2 (Q9HC29 whole entry, the tested form may be a part): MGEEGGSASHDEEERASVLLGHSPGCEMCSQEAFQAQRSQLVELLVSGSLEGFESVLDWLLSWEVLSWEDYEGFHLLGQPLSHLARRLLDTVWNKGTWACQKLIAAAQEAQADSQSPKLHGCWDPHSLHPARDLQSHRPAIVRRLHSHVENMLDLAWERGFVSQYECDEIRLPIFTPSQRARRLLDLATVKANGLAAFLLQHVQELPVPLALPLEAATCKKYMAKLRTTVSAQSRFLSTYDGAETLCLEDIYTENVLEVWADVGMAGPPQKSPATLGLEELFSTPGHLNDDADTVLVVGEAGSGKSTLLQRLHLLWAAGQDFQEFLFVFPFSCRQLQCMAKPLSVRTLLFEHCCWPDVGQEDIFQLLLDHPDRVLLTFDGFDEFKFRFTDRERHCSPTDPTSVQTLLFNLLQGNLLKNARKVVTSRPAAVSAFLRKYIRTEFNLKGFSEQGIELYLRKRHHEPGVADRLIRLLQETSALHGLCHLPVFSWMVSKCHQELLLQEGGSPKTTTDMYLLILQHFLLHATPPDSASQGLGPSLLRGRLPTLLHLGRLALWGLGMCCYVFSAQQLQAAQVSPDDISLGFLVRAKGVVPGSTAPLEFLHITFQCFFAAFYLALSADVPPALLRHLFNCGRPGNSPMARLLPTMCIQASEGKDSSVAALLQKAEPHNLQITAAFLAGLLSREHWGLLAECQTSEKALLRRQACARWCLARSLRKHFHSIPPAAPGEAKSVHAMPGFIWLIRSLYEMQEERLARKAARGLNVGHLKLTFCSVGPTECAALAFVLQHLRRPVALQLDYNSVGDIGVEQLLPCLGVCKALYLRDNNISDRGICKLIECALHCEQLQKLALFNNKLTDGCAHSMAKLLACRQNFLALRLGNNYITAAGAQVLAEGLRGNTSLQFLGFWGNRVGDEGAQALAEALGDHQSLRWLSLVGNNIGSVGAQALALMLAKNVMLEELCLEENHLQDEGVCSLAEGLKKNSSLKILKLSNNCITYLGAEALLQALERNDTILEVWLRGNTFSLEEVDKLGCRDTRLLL

[18] = Luminescence Cell-Based Dose Retest to Confirm Inhibitors of Cancer Stem Cells. [Related pubchem assays (depositor defined):AID2717, AID2721]; type: functional; settings: Homo sapiens
BJ [19] = assay: cells; type: functional, cell-based; settings: Homo sapiens
HEK293 [20] = assay: NOD1 signaling inhibitors, primary screen, cell-based, luminescence, uHTS (AID 1578); type: functional; settings: Homo sapiens
[21] = target: G-protein coupled receptor 55 (Homo sapiens, UniProt Q9Y2T6); assay: GPR55 agonists via beta-arrestin recruitment, primary screen, imaging, U2OS cells, beta-arrestin-GFP redistribution (AID 1961); type: functional
Sequence of G-protein coupled receptor 55 (Q9Y2T6 whole entry): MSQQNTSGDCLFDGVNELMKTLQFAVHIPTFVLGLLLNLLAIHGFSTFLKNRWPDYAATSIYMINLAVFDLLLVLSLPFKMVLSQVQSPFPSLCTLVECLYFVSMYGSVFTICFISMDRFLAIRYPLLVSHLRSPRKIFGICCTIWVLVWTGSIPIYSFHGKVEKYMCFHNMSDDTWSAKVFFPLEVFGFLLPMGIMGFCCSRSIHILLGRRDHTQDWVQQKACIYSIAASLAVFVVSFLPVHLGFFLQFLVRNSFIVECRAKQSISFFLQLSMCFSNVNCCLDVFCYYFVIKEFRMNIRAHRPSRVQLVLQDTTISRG

[22] = target: T1, Microphthalmia-associated transcription factor (Homo sapiens, UniProt O75030); assay: TRPM1 promoter luciferase signal decrease, dose response, MITF inhibitor project, cell-based, SK-MEL-5, cherry-picked, set 3 (AID 493073); type: functional
T1 sequence (O75030 whole entry): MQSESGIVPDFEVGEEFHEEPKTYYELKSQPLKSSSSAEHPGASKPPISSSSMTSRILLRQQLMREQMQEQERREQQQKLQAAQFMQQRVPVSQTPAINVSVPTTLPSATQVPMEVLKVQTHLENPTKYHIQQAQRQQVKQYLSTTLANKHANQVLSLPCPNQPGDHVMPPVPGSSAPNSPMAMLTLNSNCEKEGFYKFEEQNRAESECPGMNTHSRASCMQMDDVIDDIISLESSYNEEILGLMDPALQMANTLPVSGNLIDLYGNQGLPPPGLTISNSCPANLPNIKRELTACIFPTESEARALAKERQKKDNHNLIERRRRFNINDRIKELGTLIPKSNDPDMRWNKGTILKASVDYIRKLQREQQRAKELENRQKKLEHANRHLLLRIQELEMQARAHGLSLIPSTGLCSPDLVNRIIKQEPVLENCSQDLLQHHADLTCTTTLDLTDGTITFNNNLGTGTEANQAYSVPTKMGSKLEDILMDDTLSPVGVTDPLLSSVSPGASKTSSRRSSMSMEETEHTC

BJ [23] = assay: cytotoxicity toward BJ-TERT fibroblasts, dose response, cell-based, RAS-independent, luminescence (AID 1933); type: functional; settings: Homo sapiens
HEK293 [24] = assay: cells; type: functional, cell-based; settings: Homo sapiens; remark: listed apart in the source
HEK293 [25] = assay: cells; type: functional, cell-based; settings: Homo sapiens; remark: listed apart in the source
[26] = cytotoxicity in MIN6 insulinoma cells, dose response, cytotoxicity control, cell-based, mouse insulinoma (AID 2122); type: functional;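 further: confirmatory high-throughput counterscreen run to flag cytotoxic compounds; mouse MIN-6 beta cells carrying an insulin promoter eGFP reporter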
[27] = insulin promoter down-regulators in MIN6 cells, imaging, high-content screening, mouse beta cells (AID 1628); type: functional
HEK293 [28] = assay: cells; settings: Homo sapiens
[29] = target: T2, Nucleotide-binding oligomerization domain-containing protein 1 (Homo sapiens, UniProt Q9Y239); assay: NOD1 signaling inhibitors, SAR follow-up, revised (AID 2333); type: functional
T2 sequence (Q9Y239 whole entry): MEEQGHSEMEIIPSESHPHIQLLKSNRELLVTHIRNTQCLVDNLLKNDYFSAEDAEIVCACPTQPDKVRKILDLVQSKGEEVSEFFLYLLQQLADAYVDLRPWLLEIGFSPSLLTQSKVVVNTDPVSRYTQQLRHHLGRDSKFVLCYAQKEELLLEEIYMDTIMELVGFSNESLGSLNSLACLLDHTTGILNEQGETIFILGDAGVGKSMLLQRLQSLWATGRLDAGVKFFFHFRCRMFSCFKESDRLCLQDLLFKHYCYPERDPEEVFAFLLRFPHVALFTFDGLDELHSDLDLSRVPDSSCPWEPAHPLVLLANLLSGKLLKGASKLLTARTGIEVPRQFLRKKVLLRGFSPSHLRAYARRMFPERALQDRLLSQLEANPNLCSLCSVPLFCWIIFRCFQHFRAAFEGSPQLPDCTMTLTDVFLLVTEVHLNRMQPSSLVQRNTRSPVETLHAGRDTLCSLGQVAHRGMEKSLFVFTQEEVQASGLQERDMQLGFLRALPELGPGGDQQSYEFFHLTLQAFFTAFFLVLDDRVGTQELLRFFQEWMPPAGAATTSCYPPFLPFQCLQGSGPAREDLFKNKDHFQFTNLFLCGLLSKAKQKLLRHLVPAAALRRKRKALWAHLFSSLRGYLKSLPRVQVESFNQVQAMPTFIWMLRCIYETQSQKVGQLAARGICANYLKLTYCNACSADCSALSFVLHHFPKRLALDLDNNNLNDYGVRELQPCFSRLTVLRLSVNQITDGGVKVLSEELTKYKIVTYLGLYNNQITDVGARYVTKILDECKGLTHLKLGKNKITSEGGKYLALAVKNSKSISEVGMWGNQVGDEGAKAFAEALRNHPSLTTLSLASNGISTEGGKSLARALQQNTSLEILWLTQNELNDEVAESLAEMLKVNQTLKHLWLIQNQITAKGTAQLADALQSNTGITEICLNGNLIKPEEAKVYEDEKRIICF

Tumor necrosis factor = Tumor necrosis factor (Homo sapiens, UniProt P01375); assay: TNFa-triggered NF-kB activation inhibitors, SAR follow-up, cell-based, revised (AID 2337); type: functional
Sequence of Tumor necrosis factor (P01375 whole entry): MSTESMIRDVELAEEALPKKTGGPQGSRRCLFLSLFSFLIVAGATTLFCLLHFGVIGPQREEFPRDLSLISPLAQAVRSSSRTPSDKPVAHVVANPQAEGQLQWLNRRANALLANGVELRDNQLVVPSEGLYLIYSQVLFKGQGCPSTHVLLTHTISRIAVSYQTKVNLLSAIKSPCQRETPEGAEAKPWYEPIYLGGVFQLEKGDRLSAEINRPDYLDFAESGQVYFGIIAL

## Cc1onc(-c2c(F)cccc2Cl)c1C(=O)ON=C(N)c1ccc([N+](=O)[O-])o1
[1]
  CC50: 17.8 µM (active)
Cells [2]
  IC50: 4.6 µM (active)
Cells [3]
  EC50: 0.015 µM (active)
[4]
  IC50: 35.9 µM (inactive)
[5]
  EC50: 12.7 µM (active)
[6]
  CC50: 21.2 µM (active)
[7]
  CC50: > 20 µM (active)
[8]
  IC50: 0.143 µM (active)
[9]
  EC50: < 0.1 µM (active)
Steroidogenic factor 1
  IC50: 0.143 µM (active)

## O=C(CSc1nc2ccccc2c(=O)n1-c1ccc(F)cc1F)Nc1ccc(N2CCOCC2)cc1
Vero [10]
  IC50: 26.7 µM (active)
Vero [11]
  CC50: > 200 µM (active)
Vero [12]
  IC50: 38.1 µM (active)

## O=C1NC(=O)N(Cc2ccccc2)C(=O)/C1=C/C=C/c1ccco1
HEK293 [13]
  IC50: > 20 µM (inactive)
HEK293 [14]
  IC50: > 20 µM (inactive)
[15]
  EC50: 5.85 µM (inconclusive)
BJ [16]
  EC50: 4.14 µM (active)
[17]
  EC50: > 20 µM (inactive)
[18]
  AC50: 1.47 µM (active)
BJ [19]
  EC50: 8.18 µM (active)
HEK293 [20]
  EC50: > 20 µM (inactive)
[21]
  EC50: > 32 µM (inactive)
[22]
  AC50: 4.85 µM (active)
BJ [23]
  EC50: 5.74 µM (inconclusive)
HEK293 [24]
  IC50: > 20 µM (inactive)
HEK293 [25]
  IC50: 17.5 µM (active)

## COc1ccc(NCc2nc3ccccc3n2CCOc2ccc(C)cc2)cc1
[26]
  IC50: 4.54 µM (active)
[27]
  IC50: 2 µM (active)

## Cc1cccc(-n2ncc3c2CCCC3NC(=O)C2(C(N)=O)CC2)c1C (configuration not stated)
HEK293 [13]
  IC50: 16.2 µM (inactive)
HEK293 [28]
  IC50: > 20 µM (inactive)
[29]
  IC50: 4.31 µM (active)
HEK293 [14]
  IC50: > 20 µM (inactive)
[17]
  EC50: 19.7 µM (active)
HEK293 [20]
  EC50: 2.53 µM (active)
HEK293 [24]
  IC50: > 20 µM (inactive)
Tumor necrosis factor
  IC50: 14.5 µM (active)
HEK293 [25]
  IC50: 9.93 µM (active)
